From PMC7564829, “Potent Broad-Spectrum Antibacterial Activity of Amphiphilic Peptides against Multidrug-Resistant Bacteria” (Microorganisms, 2020) come the findings set out here.

For one data set, the system named is E. coli 1F28 (tet(X4)). Description: MIC/MBC, broth micro-dilution. The following applies: E. coli 1F28 (tet(X4)). The format is cell-based. As for the experimental part:
(§1) Experiments were performed with two biological replicates.
Background: Dilution methods test growth across graded concentrations, often in twofold steps.

The next data set deals with E. faecalis A4 (VRE). Description: MIC/MBC, broth micro-dilution. Type of data set: cell-based. The following applies: E. faecalis A4 (VRE). As for the experimental part:
as §1

Another data set relates to E. coli B3-1 (tet(X4)). Description: MIC/MBC, broth micro-dilution. The format is cell-based. The following applies: E. coli B3-1 (tet(X4)). As for the experimental part:
as §1

Data set [1] deals with E. coli 1F28. The format is cell-based. The following applies: E. coli 1F28 and 1A34; 10 mM in MHB.
Data set [2] has as its system E. coli 1F28. The data set is described as follows: Thermal and pH stability (residual antibacterial activity by MIC). The format is physicochemical. The following applies: residual MIC against E. coli 1F28. From the text:
(§2) Thermal, pH and proteolytic stability.

In data set [3] the test system is E. coli 1F28. Description: Cytoplasmic membrane potential (DiSC3(5)). Type of data set: cell-based. Particulars: 0 to 128 μg/mL, 60 min. The protocol: A fluorescent probe DiSC3(5) (Aladdin, Shanghai, China) was utilized to evaluate the effect of WRK-12 on bacterial membrane potential. E. coli 1F28 cells were probed with 3,3′-dipropylthiadicarbocyanine iodide (DiSC3(5), 0.5 μM) for 30 min, and then treated with WRK-12 (0 to 128 μg/mL) or colistin (128 μg/mL) for 60 min. Subsequently, the dissipated membrane potential was determined by monitoring the fluorescence intensity (λexcitation = 622 nm, λemission = 670 nm) using a Microplate reader (Tecan, Männedorf, Switzerland).

In data set [4] the test system is E. coli 1F28. Description: LPS, lipids or NAC inhibition assay (MIC). Type of data set: cell-based. From the text: Lipopolysaccharides (LPS), lipids or NAC inhibition assay.
Another data set has as its target papain (Carica papaya, UniProt P00784). The data set is described as follows: Proteolytic stability (residual antibacterial activity by MIC). The format is in vitro ADME. The following applies: papain 10 mg/mL, 1 h preincubation; residual MIC against E. coli 1F28.
Text: as §2

The mark [5] stands for this setting: broth micro-dilution CLSI 2018, MHB, 18 h, 37 °C.
The mark [6] stands for this setting: lowest concentration killing 99.9%, plated on MHA.

papain, sequence (P00784 134-345): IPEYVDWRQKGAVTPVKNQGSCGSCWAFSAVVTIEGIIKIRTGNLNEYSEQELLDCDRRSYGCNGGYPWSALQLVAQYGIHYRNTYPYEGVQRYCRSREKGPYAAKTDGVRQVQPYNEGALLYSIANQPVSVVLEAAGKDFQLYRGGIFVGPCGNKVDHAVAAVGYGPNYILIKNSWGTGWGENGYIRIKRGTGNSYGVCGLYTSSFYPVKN

Turning to Ac-WRLRWKTRWRLK-NH2 [WRK-12], the figures for the minimum inhibitory concentration (MIC) against E. coli 1F28 (tet(X4)) (setting [5]), against E. faecalis A4 (VRE) (setting [5]) and in the data set on E. coli B3-1 (tet(X4)) (setting [5]) were 2 µg/mL, 4 µg/mL and 2 µg/mL, respectively. Also, the results for the MBC in the data set with E. coli 1F28 (tet(X4)) (setting [6]), in the data set on E. faecalis A4 (VRE) (setting [6]) and in the data set on E. coli B3-1 (tet(X4)) (setting [6]) were 8 µg/mL, 8 µg/mL and 2 µg/mL, respectively. Moreover, in the data set on E. coli 1F28 [1], the “activity in the presence of monovalent cations (Na^+ and K^+)” value is listed as “not any loss of activity”. Further, in the data set on E. coli 1F28 [2] (121 °C, 1 h), the “activity reduction after thermal treatment” value was 50%. Also, the “activity reduction after pH treatment” value in the data set on E. coli 1F28 [2] (alkaline environment pH = 12, 1 h, readjusted to pH 7.2) is given as 50%. In the data set on E. coli 1F28 [2] (pH 2 to 10 for 1 h, readjusted to pH 7.2), the “remaining antibacterial activity after pH treatment” value was “completely retained its activity”. Also, the “remaining antibacterial activity after thermal treatment” value in the data set with E. coli 1F28 [2] (treatment under 100 °C for 1 h) was “completely retained its activity”. In addition, the “membrane potential (ΔΨ), DiSC3(5) fluorescence” value with E. coli 1F28 [3] is “significantly dissipated membrane potential”. For the same substance, in the data set with E. coli 1F28 [4] (16 μg/mL CL, E. coli 1F28), the “MIC increase with exogenous CL” value worked out at 16 fold. The “MIC increase with exogenous PG” value against E. coli 1F28 [4] (16 μg/mL PG, E. coli 1F28) stood at 16 fold. The “effect of exogenous LPS on antibacterial activity” value in the data set on E. coli 1F28 [4] (LPS from E. coli O111:B4, 0 to 128 μg/mL, MIC against E. coli 1F28, chequerboard broth microdilution) is recorded as “weakened WRK-12 activity in a dose-dependent manner”. For the same substance, the “MIC increase with ROS scavenger NAC” value against E. coli 1F28 [4] (NAC 2.5 mM, E. coli 1F28, three independent experiments) came to 6 fold. For the same substance, the “effect of exogenous PE on antibacterial activity” value with E. coli 1F28 [4] (PE 0 to 16 μg/mL, E. coli 1F28) is on record as “mildly impaired WRK-12 activity”. Also, at papain, the proteolytic stability result is reported as “sensitive”.

In general, MIC refers to the smallest concentration in the dilution series that meets the test's criterion for growth inhibition. Low values mean inhibition by little substance, high ones a need for much substance. Broadly, the MBC is the lowest tested concentration that kills the bacteria rather than only halting them. A lower MBC goes with more potent killing.
